Measurements published in publication PMC4644822, “Extracellular α-Galactosidase from Trichoderma sp. (WF-3): Optimization of Enzyme Production and Biochemical Characterization” (Biotechnology Research International, 2015).

Tested on: T1, extracellular α-galactosidase from Trichoderma sp. (WF-3)
T1 construct: gene agl1; native secreted enzyme, unpurified culture filtrate
Experiment: p-nitrophenol release at […] nm, Lineweaver-Burk plot
Assay type: biochemical
Conditions: culture filtrate (unpurified); standard assay 0.05 M sodium acetate pH 5.0, 50 °C, 10 min; 0.05-4.5 mM substrate; read-out: apparent K m

Km: 500 µM
SMILES: O=[N+]([O-])c1ccc(O[C@H]2O[C@H](CO)[C@H](O)[C@H](O)[C@H]2O)cc1 [pNPGal, p-nitrophenyl-α-D-galactopyranoside]
